Data published in patent publication US9051240B2, “Substituted 2-[2-(phenyl) ethylamino] alkaneamide derivatives and their use as sodium and/or calcium channel modulators” (Newron Pharmaceuticals S.P.A., priority 2007, dated 2015).
pIC50: −log10 of the molar value. Like-named read-outs stand apart in the source and are kept apart here.

Columns and labels:
L-type calcium channels = experiment: Calcium channel influx assay (fluorescence, AtT20 cell line); assay type: cell-based, mouse; details: AtT20 cells, 100 mM KCl depolarization; read-out: Ca++ influx IC50
Experimental: AtT20/D16v-F2 mouse pituitary tumour cell line preferentially expresses L-type calcium channels.
AtT20 cells were grown in DMEM with 10% of FBS, 4 mM glutamine. The cells were seeded at 200,000 cells/well on 96 poly-L-lysine-coated plates and further incubated for 18-24 h, before use.
The Ca^++ Kit Assay (Molecular Devices), which is based on a fluorescent calcium indicator to detect the calcium influx determined by depolarizing conditions, was used for the assay.
Cells were incubated with the calcium dye loading for 30 min at 37° C. Then, ω-conotoxin alone (1 μM) or in presence of nifedipine (as reference standard) or test compound were added for further 15 min.
The fluorescence (excitation: 485-emission: 535 nm wavelength) was measured before and after (30-40 sec) the automated injection of 100 mM KCl depolarizing solution using a Victor plate reader (Perkin Elmer).
The inhibition curves were calculated from 5 concentrations, each in triplicate, and the IC50 determined using linear regression analysis.

mice [1] = experiment: Maximal electroshock test (MES) in mice; assay type: in vivo; details: for ED50: Mus musculus
Source text: The maximal electroshock test (MES) is used commonly in the screening of anti-epileptic drugs in rodent models.
Animals and Apparatus: Male CD1 mice weighing 25 g were used. The procedure described by White et al. (White H. S., Woodhead J. H., Franklin M. R., Swinyard E. A., and Wolf H. H. Antiepileptic Drugs (1995) 4th ed: 99-110, Raven Press, Ltd., New York) was followed. An Ugo Basile electroconvulsive generator (Model ECT UNIT 7801) was used to deliver an electrical stimulus sufficient to produce a hindlimb tonic extensor response in at least 97% of control animals. The stimulus was delivered intra-aurally through clip electrodes in mice (0.7 s of a 40 mA shock, with a pulse train of 80 Hz having a pulse duration of 0.4 ms). The acute effect of compounds administered intraperitoneally (i.p.), subcutaneously (s.c.), intravenously (i.v.) or orally (p.o.) 5-120 minutes before MES induction were examined and compared with a vehicle control group. Ten mice were studied per group. Complete suppression of the hindlimb tonic extensor component of seizures was taken as evidence of anticonvulsant activity.
The compounds of the invention were administered p.o. or i.v., at the doses of 0.1-100 mg/kg.

SNL rats = experiment: Spinal nerve ligation model of neuropathic pain (thermal hyperalgesia); assay type: in vivo; details: Rattus norvegicus, po, orally administered
mice [2] = experiment: Amphetamine and chlordiazepoxide-induced hyperlocomotion in mice; assay type: in vivo; details: 20.0 mg/Kg po
Experimental: In this model, mice are treated with a mixture of d-amphetamine plus an anxiolytic dose of the benzodiazepine, chlordiazepoxide (Rushton R, Steinberg H. Combined effects of chlordiazepoxide and d-amphetamine on activity of rats in an unfamiliar environment. Nature 1966; 211:1312-3; R. Arban, G. Maraia, K. Brackenborough, L. Winyard, A. Wilson, P. Gerrard, C. Large. Evaluation of the effects of lamotrigine, valproate and carbamazepine in a rodent model of mania Behavioural Brain Research, 158: 123-132). The model has been claimed to mimic some aspects of mania in bipolar disorder. Importantly, the hyperactivity induced by the mixture of d-amphetamine and chlordiazepoxide could be prevented by prior administration of the established mood stabilizer, lithium, as well as other mood stabilizers drugs (e.g. magnesium valproate and carbamazepine). […]
Amphetamine (AMP) (2.5 mg/kg) plus chlordiazepoxide hydrochloride (CDZ) (3 mg/kg/ip) were administered to male Albino Swiss mice (25-32 g) in a volume of 10 ml/kg. The locomotor activity was recorded using Opto-M3 System (Columbus Instruments) which is multi-channel activity monitor. […] The locomotor activity (ambulation and total activity count) was evaluated for 30 min. […]
Statistical analysis: the data were evaluated by an analysis of variance (ANOVA), followed, when appropriate, by individual comparison with the control using Dunnett's test.

mice [3] = experiment: Acetic acid-induced visceral pain model in mice; assay type: in vivo; details: 20 mg/Kg p.o.
Source text: The acetic acid-induced visceral pain model is widely used in experimental research to produce abdominal contractions (Korster R et al., Fed. Pro. (1959) 18: 412; Friese N et al., Life Sci. (1997) 60: 625-634) The model consists of intraperitoneal (i.p.) injection of an irritant that induces a syndrome called ‘writhing’, which consists of contractions of the abdomen, twisting and turning of the trunk, arching of the back and extension of the hind limbs.
Animals and procedure: Male CD1 mice weighing 25-33 g were used. Each treated group was allowed 30 min to habituate to laboratory surroundings in individual polypropylene transparent boxes. The visceral pain was scored by counting the number of writhes for 10 min after i.p. injection of 0.6% acetic acid (10 ml/kg of body weight). The number of writhes after acetic acid administration were evaluated. Both complete body stretching (complete writhe) or partial stretching with a clear contracting of the abdomen (partial writhe) were counted.
Separate groups of 10 mice each were administered orally with vehicle (10 ml/kg), or different doses of the tested compound dissolved in vehicle (10 ml/kg), 5 min before acetic acid injection. Data are expressed as the mean number of writhes during the 10 min observation period.

Structure (SMILES)	pIC50 (L-type calcium channels)	ED50 (mice [1]; iv, read-out: MES ED50 mg/kg i.v.) [mg/kg]	ED50 (SNL rats) [mg/kg]	hyperactivity (ambulation over 30 min) induced by amphetamine alone (mice [2]; amphetamine 2.5 mg/kg i.p.)	hyperactivity (ambulation over 30 min) induced by the mixture of amphetamine and chlordiazepoxide (mice [2]; amphetamine 2.5 mg/kg i.p. + chlordiazepoxide 3.0 mg/Kg ip)	number of writhes, significance vs. vehicle (mice [3])	ED50 (mice [1]; iv, mice, MES, i.v., read-out: MES ED50 mg/kg i.v.) [mg/kg]	ED50 (mice [1]; po, mice, MES, p.o., read-out: ED50 (mg/kg p.o.)) [mg/kg]	% protection 10 mg/kg p.o. (mice [1]; mice, MES, 10 mg/kg p.o.) [%]
C[C@H](NCc1ccc(OCc2ccccc2F)cc1)C(N)=O [ralfinamide, (S)-(+)-2-[4-(2-fluorobenzyloxy)-benzylamino]-propanamide, reference compound]	4.59	2.7	–	–	–	–	–	–	–
CCCCOc1cccc(CCNCC(=O)N(C)C)c1.Cl [2-[2-(3-Butoxyphenyl)-ethylamino]-N,N-dimethylacetamide hydrochloride]	–	–	10.6	reduced hyperactivity	reduced hyperactivity	p<0.01 vs. vehicle	0.2	4.3	100
